Measurements: article PMC11062899, “De novo development of small cyclic peptides that are orally bioavailable” (Nature Chemical Biology, 2023)
Where “and” joins values, the source holds several entries; their conditions need not be identical. Identical values can stand only once.

Tests used:
human α-thrombin = human α-thrombin (Homo sapiens, UniProt P00734); assay: Protease inhibition, Ki for human α-thrombin (fluorogenic substrate Z-Gly-Gly-Arg-AMC); type: biochemical; settings: replicates R1-R3
In short: (§1)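 Inhibition was measured as AMC fluorescence from 50 μM substrate, monitored for 30 min at 25 °C, relative to a peptide-free control. Human and rat enzymes were present at 2 nM and 3 nM final, respectively, in 50 mM Tris-HCl pH 7.4, 150 mM NaCl, 10 mM MgCl2, 1 mM CaCl2. Ki derives from fitted IC50 via Cheng–Prusoff.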

[1] = Metabolic stability in rat liver microsomes (RLMs); settings: rat, microsomes
[2] = Peptide stability in simulated intestinal fluid (SIF); type: in vitro ADME, porcine; settings: simulated gi fluid; 8 h, 37 °C, pH 6.8; read-out: Proteolytic stability: SIF (8 h) % remaining
In short: (§2)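 Peptide from a 1 mM DMSO stock was added to fluid pre-warmed at 37 °C. SGF was pH 1.2 NaCl with porcine pepsin (0.32 g per 100 ml), and SIF was pH 6.8 potassium phosphate with porcine pancreatin (1 g per 100 ml). Supernatant peptide was quantified by LC–MS, with residual expressed as T1/T0.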

porcine pancreatin = assay: as above; type: in vitro ADME; settings: after 8 h vs 0 h (TIC)
In short: as §2

rat α-thrombin = molecular target: T1, rat α-thrombin (Rattus norvegicus, UniProt P18292); assay: Protease inhibition, Ki for rat α-thrombin (fluorogenic substrate Z-Gly-Gly-Arg-AMC); type: biochemical; settings: replicates R1-R3
T1 construct: rat α-thrombin (Molecular Innovations) were used at final concentrations of 2 nM and 3 nM; purchased Molecular Innovations
In short: as §1

porcine pepsin = molecular target: T2, porcine pepsin (Sus scrofa, UniProt P00791); assay: Peptide stability in simulated gastric fluid (SGF); type: in vitro ADME
T2 construct: 0.32 g of porcine pepsin (Sigma-Aldrich, P7125) was dissolved under gentle agitation; purchased Sigma-Aldrich P7125
In short: as §2

[3] = Passive artificial membrane permeability (PAMPA)
[4] = peptide 1.33E+02 uM, slope of proteolytic substrate cleavage over time

T2 sequence (P00791 60-385): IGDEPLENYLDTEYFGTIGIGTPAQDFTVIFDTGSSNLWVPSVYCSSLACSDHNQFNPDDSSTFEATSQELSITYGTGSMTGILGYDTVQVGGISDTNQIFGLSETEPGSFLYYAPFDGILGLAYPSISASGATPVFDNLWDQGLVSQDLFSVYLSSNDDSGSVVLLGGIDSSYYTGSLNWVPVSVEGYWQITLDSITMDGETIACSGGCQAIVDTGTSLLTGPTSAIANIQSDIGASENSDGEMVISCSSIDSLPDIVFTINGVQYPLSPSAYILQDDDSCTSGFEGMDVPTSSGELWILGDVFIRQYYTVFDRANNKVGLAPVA

Human alpha thrombin inhibition, slope normalized to DMSO (human α-thrombin; peptide 1.02E-03 uM): 95.9 and 98.2 and 97.4
Human alpha thrombin inhibition, slope normalized to DMSO (human α-thrombin; peptide 1.04E+00 uM): 81.9 and 85.8 and 83.3
Human alpha thrombin inhibition, slope normalized to DMSO (human α-thrombin; peptide 1.27E-04 uM): 100.0
Human alpha thrombin inhibition, slope normalized to DMSO (human α-thrombin; peptide 1.30E-01 uM): 95.8 and 97.8
Human alpha thrombin inhibition, slope normalized to DMSO (human α-thrombin; [4]): 5.8 and 7.8 and 9.3
Human alpha thrombin inhibition, slope normalized to DMSO (human α-thrombin; peptide 1.63E-02 uM): 98.1 and 95.1
Human alpha thrombin inhibition, slope normalized to DMSO (human α-thrombin; peptide 1.67E+01 uM): 24.2 and 34.4 and 34.5
Human alpha thrombin inhibition, slope normalized to DMSO (human α-thrombin; peptide 2.03E-03 uM): 107.0
Human alpha thrombin inhibition, slope normalized to DMSO (human α-thrombin; peptide 2.08E+00 uM): 75.9 and 67.7 and 77.5
Human alpha thrombin inhibition, slope normalized to DMSO (human α-thrombin; peptide 2.54E-04 uM): 106.8 and 94.5 and 91.2
Human alpha thrombin inhibition, slope normalized to DMSO (human α-thrombin; peptide 2.60E-01 uM): 93.5 and 89.6 and 97.8
Human alpha thrombin inhibition, slope normalized to DMSO (human α-thrombin; peptide 3.18E-05 uM): 101.5 and 97.9 and 106.2
Human alpha thrombin inhibition, slope normalized to DMSO (human α-thrombin; peptide 3.26E-02 uM): 103.3 and 97.7 and 104.2
Human alpha thrombin inhibition, slope normalized to DMSO (human α-thrombin; peptide 3.33E+01 uM): 16.8 and 22.5 and 20.8
Human alpha thrombin inhibition, slope normalized to DMSO (human α-thrombin; peptide 4.07E-03 uM): 97.2 and 91.1
Human alpha thrombin inhibition, slope normalized to DMSO (human α-thrombin; peptide 4.17E+00 uM): 54.3 and 66.2 and 66.1
Human alpha thrombin inhibition, slope normalized to DMSO (human α-thrombin; peptide 5.09E-04 uM): 94.9 and 97.9
Human alpha thrombin inhibition, slope normalized to DMSO (human α-thrombin; peptide 5.21E-01 uM): 90.1 and 82.7 and 89.7
Human alpha thrombin inhibition, slope normalized to DMSO (human α-thrombin; peptide 6.36E-05 uM): 101.8 and 98.6 and 104.2
Human alpha thrombin inhibition, slope normalized to DMSO (human α-thrombin; peptide 6.51E-02 uM): 97.4 and 97.6
Human alpha thrombin inhibition, slope normalized to DMSO (human α-thrombin; peptide 6.67E+01 uM): 12.2 and 13.3 and 13.7
Human alpha thrombin inhibition, slope normalized to DMSO (human α-thrombin; peptide 8.14E-03 uM): 97.0 and 98.1 and 103.6
Human alpha thrombin inhibition, slope normalized to DMSO (human α-thrombin; peptide 8.33E+00 uM): 51.4 and 50.3 and 44.5
microsomal CLint ([1]; CL (ul/min/mg protein) R1, RLM CL, replicate R1): 75.7 µL/min/mg
microsomal CLint ([1]; CL (ul/min/mg protein) R2, RLM CL, replicate R2): 76.9 µL/min/mg
microsomal CLint ([1]; CL (ul/min/mg protein) R3, RLM CL, replicate R3): 68.3 µL/min/mg
half-life ([1]; Half Life (min) R1, RLM metabolic stability, replicate R1, 0-60 min): 18.3 min
half-life ([1]; Half Life (min) R2, RLM metabolic stability, replicate R2, 0-60 min): 18 min
half-life ([1]; Half Life (min) R3, RLM metabolic stability, replicate R3, 0-60 min): 20.3 min
half-life ([1]; Metabolic stability: Half life T1/2 (min), RLMs, mean and SD, three measurements): 18.9 ± 1 min
microsomal CLint ([1]; Metabolic stability: RLM CL (ul/min/mg), RLMs, mean and SD, three measurements): 74 ± 4 µL/min/mg
remaining at 8 h [2]: 95 ± 6%
SIF stability, Residual peptide Average (porcine pancreatin; average of R1-R3): 94.64
SIF stability, Residual peptide (porcine pancreatin; single replicates R1-R3): 97.98 and 88.07 and 97.88
Rat alpha thrombin inhibition, slope normalized to DMSO (rat α-thrombin; [4]): 3.2 and 2.1 and 2.4
Rat alpha thrombin inhibition, slope normalized to DMSO (rat α-thrombin; peptide 1.67E+01 uM): 12.6 and 11.9 and 11.7
Rat alpha thrombin inhibition, slope normalized to DMSO (rat α-thrombin; peptide 2.08E+00 uM): 49.1 and 48.5 and 49.4
Rat alpha thrombin inhibition, slope normalized to DMSO (rat α-thrombin; peptide 3.33E+01 uM): 7.2 and 6.5 and 6.2
Rat alpha thrombin inhibition, slope normalized to DMSO (rat α-thrombin; peptide 4.17E+00 uM): 33.5 and 33.2 and 33.1
Rat alpha thrombin inhibition, slope normalized to DMSO (rat α-thrombin; peptide 6.67E+01 uM): 4.2 and 3.4 and 3.2
Rat alpha thrombin inhibition, slope normalized to DMSO (rat α-thrombin; peptide 8.33E+00 uM): 18.9 and 18.7 and 17.7
SGF stability, Residual peptide Average (porcine pepsin; after 8 h vs 0 h (TIC), average of R1-R3): 99.25
SGF stability, Residual peptide (porcine pepsin; after 8 h vs 0 h (TIC), single replicates R1-R3): 102.40 and 99.33 and 96.01
remaining at 8 h (porcine pepsin; simulated gi fluid, 8 h, 37 °C, pH 1.2, read-out: Proteolytic stability: SGF (8 h) % remaining): 99 ± 3%
PAMPA permeability: % permeability ([3]; 50 μM, 12–18 h, acceptor concentration relative to equilibrium): 2.0 ± 1.7%
Papp at 50 μM ([3]; PAMPA, pH 7.4): 0.049 ×10⁻⁶ cm/s
Permeability% Average ([3]; PAMPA, average of R1-R3): 2.0%
Permeability% R1 ([3]; PAMPA, replicate R1, TIC of top well sample relative to sample at theoretical equilibrium): 0.0459%
Permeability% R3 ([3]; PAMPA, replicate R3, TIC of top well sample relative to sample at theoretical equilibrium): 3.39%
SMILES: O=C1CCSCc2cccc(n2)CSCCNC(=O)C2CN(C(=O)c3ccc(Cl)s3)CCN2C(=O)[C@H](CO)N1 (stereo partly shown) [compound 24]
